These results are taken from PubChem BioAssay (NCI).

Test systems include SF-268 CNS; OVCAR-8 ovarian; NCI-H226 lung; SR leukemia; MDA-MB-435; NCI/ADR-RES ovarian; CCRF-CEM leukemia; SNB-75 CNS; HT29 colon; KM12 colon.
What all share (assay): NCI tumour cell line growth inhibition, 48 h

Values joined by “and” are separate entries in the source; they are usually repeats but may differ in a detail not shown here. Equal entries are not always repeated.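 These data come from cells grown in 96-well plates and exposed to compound for 48 hours at five concentrations. GI50 is the concentration that inhibits growth by half. At the TGI there is no net growth.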 Some results are limits rather than exact numbers.

Take `COc1ccc2c(c1)NC1=C(C(=O)OC1)C2c1cc(OC)c2c(c1)OCO2` (stereo not drawn): the GI50 was less than 0.021 µM with SF-268 CNS; less than 0.0185 µM in the assay with OVCAR-8 ovarian; less than 0.0153 µM in the assay with NCI-H226 lung; less than 0.0191 µM with SR leukemia; less than 0.0123 µM in the assay on MDA-MB-435; less than 0.0165 µM in the assay on NCI/ADR-RES ovarian. For the same compound, the GI50 was less than 0.0187 µM in the assay on CCRF-CEM leukemia, 0.0426 µM in the assay with SNB-75 CNS and 0.0314 µM in the assay on HT29 colon. Besides, the TGI is more than 100 µM in the assay on SF-268 CNS; more than 100 µM in the assay on OVCAR-8 ovarian; more than 100 µM with SR leukemia; 0.0322 µM in the assay on MDA-MB-435; more than 100 µM with CCRF-CEM leukemia; 43.3 µM in the assay on SNB-75 CNS. Also, the TGI in the assay with HT29 colon was more than 100 µM.

With `N#C/C(=C\c1ccsc1)c1nc2ccccc2o1`, the GI50 in the assay with SF-268 CNS was 38 µM; in the assay with KM12 colon, more than 100 µM; with OVCAR-8 ovarian it was more than 100 µM; in the assay on NCI-H226 lung, more than 100 µM; with SR leukemia, more than 100 µM; with MDA-MB-435, more than 100 µM. The GI50 in the assay with NCI/ADR-RES ovarian was more than 100 µM; with SNB-75 CNS, 24.5 µM; in the assay on HT29 colon it was more than 100 µM. Besides, the TGI with SF-268 CNS, in the assay on KM12 colon, in the assay with OVCAR-8 ovarian, with NCI-H226 lung, with SR leukemia and in the assay with MDA-MB-435 was more than 100 µM each time. The TGI with NCI/ADR-RES ovarian was more than 100 µM; in the assay on CCRF-CEM leukemia, 26.3 µM; in the assay on SNB-75 CNS, 65.5 µM; with HT29 colon, more than 100 µM.

As for `COc1cccc(N2C(=O)C3c4[nH]c5ccccc5c4C4CCCC4C3C2=O)c1` (stereo not drawn), the TGI in the assay on SF-268 CNS was more than 10 µM; in the assay on KM12 colon, more than 10 µM; in the assay with OVCAR-8 ovarian, more than 10 µM; with NCI-H226 lung it was 7.59 µM; in the assay on SR leukemia it was 4.09 µM; with MDA-MB-435, more than 10 µM. In addition, the TGI is more than 10 µM in the assay on NCI/ADR-RES ovarian, more than 10 µM in the assay on CCRF-CEM leukemia, 5.77 µM in the assay with SNB-75 CNS and more than 10 µM in the assay on HT29 colon.

Consider `COc1ccc2c(c1)c(CC(=O)[Se]C)c(C)n2C(=O)c1ccc(Cl)cc1`, for which the GI50 with SF-268 CNS is more than 0.199 µM; with KM12 colon it was more than 0.577 µM; with OVCAR-8 ovarian it was more than 0.346 µM; with SR leukemia it was more than 0.507 µM; in the assay with MDA-MB-435, more than 0.231 µM; in the assay with NCI/ADR-RES ovarian it was more than 0.237 µM. For the same compound, the GI50 in the assay on CCRF-CEM leukemia is more than 0.391 µM; with HT29 colon it was more than 0.223 µM. Besides, the TGI in the assay on SF-268 CNS is more than 0.53 µM; in the assay with KM12 colon, more than 1 µM; in the assay with OVCAR-8 ovarian it was more than 0.733 µM; with NCI-H226 lung, more than 0.27 µM; in the assay with SR leukemia it was more than 1 µM; in the assay on MDA-MB-435, more than 0.503 µM. Besides, the TGI is more than 0.695 µM with NCI/ADR-RES ovarian, more than 1 µM in the assay with CCRF-CEM leukemia, more than 0.238 µM in the assay on SNB-75 CNS and more than 1 µM with HT29 colon.

Consider `NCCCC[C@@H]1NC(=O)[C@H]2CCCN2C(=O)[C@H](Cc2ccccc2)CNC(=O)[C@H](Cc2ccccc2)NC1=O`, for which the GI50 with SF-268 CNS was more than 37.5 µM; with KM12 colon it was more than 37.5 µM; in the assay with OVCAR-8 ovarian it was more than 37.5 µM; in the assay on NCI-H226 lung it was more than 37.5 µM; in the assay on SR leukemia it was 31.9 µM; in the assay with MDA-MB-435 it was more than 37.5 µM. The GI50 in the assay with NCI/ADR-RES ovarian, in the assay with SNB-75 CNS and in the assay on HT29 colon was more than 37.5 µM throughout. In addition, the TGI with SF-268 CNS, in the assay with KM12 colon, in the assay on OVCAR-8 ovarian, in the assay on NCI-H226 lung, in the assay on SR leukemia and in the assay with MDA-MB-435 was more than 37.5 µM in each case. Further, the TGI with NCI/ADR-RES ovarian, in the assay with SNB-75 CNS and in the assay on HT29 colon was more than 37.5 µM each time.

Regarding `Cc1cccc(/C=N/NC(=S)N2CCCC2)n1`, the GI50 with SF-268 CNS is 2.29 µM; in the assay with KM12 colon it was 0.88 µM and 0.322 µM; in the assay on OVCAR-8 ovarian, 0.624 µM; in the assay on NCI-H226 lung, 0.266 µM; in the assay with SR leukemia, 0.15 µM; with MDA-MB-435 it was 1.11 µM. Moreover, the GI50 in the assay with NCI/ADR-RES ovarian was 0.319 µM; in the assay on CCRF-CEM leukemia, 0.0659 µM; in the assay with HT29 colon, 4.49 µM. Moreover, the TGI with KM12 colon was more than 100 µM; with OVCAR-8 ovarian it was more than 100 µM; in the assay on NCI-H226 lung, 7.73 µM and 0.83 µM; in the assay on SR leukemia, 0.876 µM; with MDA-MB-435, more than 100 µM; in the assay with NCI/ADR-RES ovarian it was 6.93 µM and 4.89 µM. Also, the TGI in the assay with CCRF-CEM leukemia is 0.85 µM; in the assay with HT29 colon it was more than 100 µM.

On to `CC(C)(C)C(=O)OCC1C(=O)OCC1C(=O)N1Cc2cc3ccccc3nc2C1` (stereo not drawn), for which the TGI with SF-268 CNS is 24.7 µM; with KM12 colon it was 29.8 µM; in the assay with OVCAR-8 ovarian, 14.8 µM; in the assay with NCI-H226 lung, 14 µM; in the assay on SR leukemia, 3.77 µM; in the assay with MDA-MB-435, 15.7 µM. The TGI in the assay on NCI/ADR-RES ovarian was 18.9 µM; in the assay on CCRF-CEM leukemia, 5.89 µM; in the assay on SNB-75 CNS, 19.9 µM; in the assay with HT29 colon, 14.2 µM.

As for `Cc1cc2c(C(C)C)c(O)c(O)cc2c(O)c1-c1c(C)cc2c(C(C)C)c(O)c(O)cc2c1O`, the GI50 in the assay with SF-268 CNS is 12 µM; in the assay with KM12 colon, 11.6 µM; in the assay with OVCAR-8 ovarian, 15.2 µM; with NCI-H226 lung it was 16.5 µM; with SR leukemia it was 8.24 µM; in the assay on MDA-MB-435, 14.5 µM. Besides, the GI50 is 20.7 µM with NCI/ADR-RES ovarian, 3.91 µM with CCRF-CEM leukemia, 24.5 µM in the assay with SNB-75 CNS and 20.1 µM with HT29 colon. Further, the TGI amounted to 34.6 µM in the assay on SF-268 CNS; 27.2 µM with KM12 colon; 41.1 µM in the assay with OVCAR-8 ovarian; 34.9 µM in the assay on NCI-H226 lung; 28.4 µM in the assay on SR leukemia; 31.3 µM in the assay with MDA-MB-435. In addition, the TGI with NCI/ADR-RES ovarian came out at 48.9 µM; in the assay on CCRF-CEM leukemia, 21.5 µM; in the assay on SNB-75 CNS, 60 µM; with HT29 colon, 39.6 µM.

For `Cc1c(C(=O)Nc2ccccc2)sc2ncn(Cc3cccc(Cl)c3)c(=O)c12`, the GI50 is 73.2 µM in the assay on SF-268 CNS; 99 µM in the assay with KM12 colon; 28.7 µM in the assay with OVCAR-8 ovarian; 10.6 µM in the assay with NCI-H226 lung; 14.8 µM in the assay with SR leukemia; 24.2 µM with MDA-MB-435. The GI50 with NCI/ADR-RES ovarian is 25.7 µM; in the assay on CCRF-CEM leukemia it was 22.1 µM; in the assay with SNB-75 CNS, 33.3 µM; with HT29 colon, 78.4 µM. Besides, the TGI in the assay on SF-268 CNS was more than 100 µM; in the assay on KM12 colon, more than 100 µM; in the assay on OVCAR-8 ovarian, 89.1 µM; in the assay with NCI-H226 lung it was 41.6 µM; in the assay with SR leukemia, 53 µM; in the assay on MDA-MB-435 it was more than 100 µM. For the same compound, the TGI with NCI/ADR-RES ovarian is more than 100 µM; in the assay on CCRF-CEM leukemia it was 97.3 µM; with SNB-75 CNS, more than 100 µM; in the assay with HT29 colon, more than 100 µM.
